Experimental data from the CheMixHub ionic liquid set.
± gives the uncertainty stated by the source.

Test: xn = mol fraction of the nth substance listed

CCCCCCCCCC(=O)[O-].CCCCCCCCCCCCCC[P+](CCCCCC)(CCCCCC)CCCCCC + O
Settings | viscosity [mPa·s]
358.15 K, 100 kPa, x2 = 0.872 | 9.345 ± 0.073

CCCC[n+]1ccc(C)cc1.N#C[S-] + O
101 kPa
Settings | viscosity [mPa·s]
298.15 K, x2 = 0.0564 | 74.9 ± 8.2
298.15 K, x2 = 0.9714 | 1.58 ± 0.1
308.15 K, x2 = 0.6364 | 10.02 ± 0.62
308.15 K, x2 = 0.9714 | 1.24 ± 0.08
318.15 K, x1 = 0.0076 | 0.73 ± 0.05
318.15 K, x2 = 0 | 33.9 ± 2.1
318.15 K, x2 = 0.9714 | 1.01 ± 0.07
328.15 K, x2 = 0.9028 | 1.71 ± 0.11
328.15 K, x2 = 0.957 | 1.01 ± 0.06
328.15 K, x2 = 0.9714 | 0.84 ± 0.05
338.15 K, x2 = 0 | 17.3 ± 1.1
338.15 K, x2 = 0.1655 | 12.9 ± 0.8
338.15 K, x2 = 0.3797 | 8.38 ± 0.52
338.15 K, x2 = 0.4628 | 7.17 ± 0.45
338.15 K, x2 = 0.5669 | 5.54 ± 0.34
338.15 K, x2 = 0.7623 | 2.94 ± 0.18
338.15 K, x2 = 0.9714 | 0.73 ± 0.05
348.15 K, x2 = 0.1655 | 9.89 ± 0.62
348.15 K, x2 = 0.5669 | 4.45 ± 0.28
348.15 K, x2 = 0.957 | 0.75 ± 0.05

CCC[n+]1ccn(C)c1.COS(=O)(=O)[O-] + O
viscosity [mPa·s], 101 kPa
Settings | 298.15 K | 308.15 K | 318.15 K | 328.15 K
x1 = 0.000281 | 0.799 ± 0.044 | 0.699 ± 0.043 | 0.62 ± 0.043 | 0.566 ± 0.042
x1 = 0.0007725 | 0.805 ± 0.044 | 0.709 ± 0.043 | 0.638 ± 0.043 | 0.57 ± 0.042
x1 = 0.0009344 | 0.814 ± 0.044 | 0.717 ± 0.044 | 0.642 ± 0.043 | 0.575 ± 0.042
x1 = 0.001368 | 0.819 ± 0.044 | 0.727 ± 0.044 | 0.647 ± 0.043 | 0.58 ± 0.043
x1 = 0.001628 | 0.813 ± 0.044 | 0.735 ± 0.044 | 0.66 ± 0.043 | 0.588 ± 0.043
x1 = 0.002412 | 0.829 ± 0.044 | 0.758 ± 0.044 | 0.658 ± 0.043 | 0.602 ± 0.043
x1 = 0.004829 | 0.838 ± 0.044 | 0.796 ± 0.044 | 0.702 ± 0.043 | 0.647 ± 0.043
x1 = 0.007746 | 0.886 ± 0.045 | 0.847 ± 0.044 | 0.757 ± 0.044 | 0.701 ± 0.043
x1 = 0.009565 | 0.931 ± 0.045 | 0.888 ± 0.045 | 0.81 ± 0.044 | 0.736 ± 0.044
x1 = 0.01237 | 0.999 ± 0.046 | 0.93 ± 0.045 | 0.865 ± 0.045 | 0.79 ± 0.044
x1 = 0.01639 | 1.113 ± 0.047 | 1.021 ± 0.046 | 0.963 ± 0.046 | 0.878 ± 0.045
x1 = 0.01912 | 1.182 ± 0.048 | 1.072 ± 0.047 | 1.017 ± 0.046 | 0.953 ± 0.046
x2 = 0.9709 | 1.48 ± 0.051 | 1.268 ± 0.049 | 1.247 ± 0.049 | 1.122 ± 0.047
x2 = 0.9746 | 1.387 ± 0.05 | 1.205 ± 0.048 | 1.167 ± 0.048 | 1.054 ± 0.046
